Reference: patent US20260200939A1, “MOLECULAR GLUE DEGRADER COMPOUNDS AND USES THEREOF” (Novartis AG, priority 2022, published 2026)

These compounds were tested against T1, Recombinant RNF126 (Homo sapiens, UniProt Q9BV68) (assay: RNF126 Binding Assay, gel-based ABPP). Settings: not given.
T1 construct: FLAG (C); host or cells: HEK293T
Method: RNF126 mammalian expression plasmid with a C-terminal FLAG tag was purchased from Origene (Origene Technologies Inc., RC204986). The plasmid was transformed into NEB 5-alpha Competent E. coli (DH5) cells (NEB product no. C2987H). The following day, a single transformed colony was used to inoculate 50 ml of nutrient rich LB medium containing kanamycin (50 μg/ml) and was incubated at 37° C. overnight, with agitation (250 rpm). A Miniprep (Qiagen) kit was used to isolate the plasmid before sequence verification with appropriate primers.
HEK293T cells were grown to 30-50% confluency in DMEM supplemented with 10% FBS (Corning) and maintained at 37° C. with 5% CO2. Immediately before transfection, media was replaced with DMEM containing 5% FBS. Each plate was transfected with 24 μg of overexpression plasmid with 24 μL Lipofectamine 3000 (Invitrogen) in Opti-MEM. After 48 h cells were collected in PBS, lysed by sonication, and batch bound with anti-DYKDDDDK resin (GenScript, L00432) for 2 hours. Lysate and resin were washed with PBS and eluted with 133.33 μg/ml 3×FLAG peptide (ApexBio, A6001) in PBS. Five elutions were performed for 15 minutes each. Elutions were concentrated and the protein was stored in PBS. Concentration and purity was determined using the BCA assay and western blotting.
Recombinant RNF126 ([…]) was pre-treated with either DMSO vehicle or covalent ligand at 37° C. for 30 min in 25 μL of PBS, and subsequently treated with of IA-Rhodamine (concentrations designated in figure legends) (Setareh Biotech) at room temperature for 1 h in the dark. The reaction was stopped by addition of 4×reducing Laemmli SDS sample loading buffer (Alfa Aesar). After boiling at 95° C. for 5 min, the samples were separated on precast 4-20% Criterion TGX gels (Bio-Rad). Probe-labeled proteins were analyzed by in-gel fluorescence using a ChemiDoc MP (Bio-Rad).

T1 sequence (Q9BV68 whole entry): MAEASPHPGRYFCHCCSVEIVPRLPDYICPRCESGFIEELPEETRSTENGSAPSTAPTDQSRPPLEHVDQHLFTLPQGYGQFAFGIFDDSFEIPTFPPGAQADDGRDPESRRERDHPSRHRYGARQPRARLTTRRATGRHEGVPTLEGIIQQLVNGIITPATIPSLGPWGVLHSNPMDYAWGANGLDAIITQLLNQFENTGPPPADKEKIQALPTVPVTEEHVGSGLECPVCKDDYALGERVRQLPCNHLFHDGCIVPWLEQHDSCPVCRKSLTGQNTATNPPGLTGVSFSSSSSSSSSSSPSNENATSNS

Row | IC50 | SMILES
1 | < 100 nM | COc1ccc(C(=O)/C=C/C(=O)N2CCN(C(=O)OC(C)(C)C)CC2)cc1F [Compound 414, tert-butyl (E)-4-(4-(3-fluoro-4-methoxyphenyl)-4-oxobut-2-enoyl)piperazine-1-carboxylate]
2 | < 100 nM | CC(C)(C)OC(=O)N1CCN(C(=O)/C=C/C(=O)c2ccccc2C#N)CC1 [Compound 415, tert-butyl (E)-4-(4-(2-cyanophenyl)-4-oxobut-2-enoyl)piperazine-1-carboxylate]
3 | < 100 nM | CC(C)(C)OC(=O)N1CCN(C(=O)/C=C/C(=O)c2ccc(C#N)cc2)CC1 [Compound 416, tert-butyl (E)-4-(4-(4-cyanophenyl)-4-oxobut-2-enoyl)piperazine-1-carboxylate]

Same assay, conditions: range with lower bound in nM and upper bound in μM

Row | IC50 | SMILES
4 | 100 to 1000 nM | COc1ccc(C(=O)/C=C/C(=O)N2CCN(C(=O)OC(C)(C)C)CC2)c(F)c1 [Compound 412, tert-butyl (E)-4-(4-(2-fluoro-4-methoxyphenyl)-4-oxobut-2-enoyl)piperazine-1-carboxylate]
5 | 100 to 1000 nM | COc1cc(F)ccc1C(=O)/C=C/C(=O)N1CCN(C(=O)OC(C)(C)C)CC1 [Compound 413, tert-butyl (E)-4-(4-(4-fluoro-2-methoxyphenyl)-4-oxobut-2-enoyl)piperazine-1-carboxylate]
6 | 100 to 1000 nM | CC(C)(C)OC(=O)N1CCN(C(=O)/C=C/C(=O)c2cccc(C#N)c2)CC1 [Compound 417, tert-butyl (E)-4-(4-(3-cyanophenyl)-4-oxobut-2-enoyl)piperazine-1-carboxylate]
7 | 100 to 1000 nM | COc1ccc(C(=O)/C=C/C(=O)N2CCN(C(=O)OC(C)(C)C)CC2)c(Cl)c1 [Compound 418, tert-butyl (E)-4-(4-(2-chloro-4-methoxyphenyl)-4-oxobut-2-enoyl)piperazine-1-carboxylate]
8 | 100 to 1000 nM | C#CCOc1ccc(C(=O)/C=C/C(=O)N2CCN(C(=O)OC(C)(C)C)CC2)cc1 [Compound 419, tert-butyl (E)-4-(4-oxo-4-(4-(prop-2-yn-1-yloxy)phenyl)but-2-enoyl)piperazine-1-carboxylate]

Each compound was assayed against T2, CDK4 (Homo sapiens, UniProt P11802) (assay: CDK4 Degradation Assay, Western blotting). Settings: not given.
T2 construct: endogenous in cells; host or cells: C33A
Format: cell-based
Method: C33A cells were purchased from American Type Culture Collection (ATCC) and were cultured in Dulbecco's Modified Eagle Medium (DMEM) containing 10% (v/v) fetal bovine serum (FBS) and maintained at 37° C. with 5% CO2. 22RV1 cells were purchased from the ATCC and were cultured in RPMI-1640 Medium containing 10% (v/v) FBS and maintained at 37° C. with 5% CO2. HEK293T cells were obtained from the UC Berkeley Cell Culture Facility and were cultured in DMEM containing 10% (v/v) FBS and maintained at 37° C. with 5% CO2. K562 cells were obtained from the UC Berkeley Cell Culture Facility and were cultured in Iscove's Modified Dulbecco's Medium (IMDM) containing 10% (v/v) FBS and maintained at 37° C. with 5% CO2. MV-4-11 cells were obtained from the ATCC and were cultured in IMDM containing 10% (v/v) FBS and maintained at 37° C. with 5% CO2. A549 cells were obtained from the ATCC and were cultured in F-12K Medium containing 10% (v/v) FBS and maintained at 37° C. with 5% CO2. Mino cells were obtained from the ATCC and were cultured in RPMI-1640 Medium containing 10% (v/v) FBS and maintained at 37° C. with 5% CO2. LNCaP cells were obtained from the ATCC and were cultured in RPMI-1640 Medium containing 10% (v/v) FBS and maintained at 37° C. with 5% CO2. Unless otherwise specified, all cell culture materials were purchased from Gibco. It is not known whether HEK293T cells are from male or female origin.
Cells were washed twice with cold PBS, scraped, and pelleted by centrifugation (700 g, 5 min, 4° C.). Pellets were resuspended in PBS, sonicated, clarified by centrifugation (12,000 g, 10 min, 4° C.), and lysate was transferred to new low-adhesion microcentrifuge tubes. Proteome concentrations were determined using BCA assay and lysate was diluted to appropriate working concentrations.
Proteins were resolved by SDS/PAGE and transferred to nitrocellulose membranes using the Trans-Blot Turbo transfer system (Bio-Rad). Membranes were blocked with 5% BSA in Tris-buffered saline containing Tween 20 (TBS-T) solution for 30 min at RT, washed in TBS-T, and probed with primary antibody diluted in recommended diluent per manufacturer overnight at 4° C. After 3 washes with TBS-T, the membranes were incubated in the dark with IR680- or IR800-conjugated secondary antibodies at 1:10,000 dilution in 5% BSA in TBS-T at RT for 1 h. After 3 additional washes with TBST, blots were visualized using an Odyssey Li-Cor fluorescent scanner. The membranes were stripped using ReBlot Plus Strong Antibody Stripping Solution (EMD Millipore) when additional primary antibody incubations were performed. Antibodies used in this study were CDK4 (Abcam ab108357), Vinculin (Abcam ab129002), GAPDH (Cell Signaling Technology 14C10), RNF126 (Santa Cruz Biotechnology sc-376005), BRD4 (Abcam ab128874), Beta Actin (Cell Signaling Technology 13E5), PDE5 (Abcam ab259945), AR-V7 (Abcam ab273500), c-Abl (Santa Cruz Biotechnology sc-23), SMARCA2 (Abcam ab240648), LRRK2 (Abcam ab133474), BTK (Cell Signaling Technology D3H5), Androgen Receptor (Abcam ab133273).

Row | DC50 | SMILES
9 | > 10000 nM | COc1ccc(C(=O)/C(C)=C/C(=O)N2CCN(c3ccc(Nc4ncc5cc(C(=O)N(C)C)n(C6CCCC6)c5n4)nc3)CC2)cc1 [Compound 146, (E)-7-cyclopentyl-2-((5-(4-(4-(4-methoxyphenyl)-3-methyl-4-oxobut-2-enoyl)piperazin-1-yl)pyridin-2-yl)amino)-N,N-dimethyl-7H-pyrrolo[2,3-d]pyrimidine-6-carboxamide]
10 | > 10000 nM | COc1ccccc1C(=O)/C=C/C(=O)N1CCN(c2ccc(Nc3ncc4cc(C(=O)N(C)C)n(C5CCCC5)c4n3)nc2)CC1 [Compound 148, (E)-7-cyclopentyl-2-((5-(4-(4-(2-methoxyphenyl)-4-oxobut-2-enoyl)piperazin-1-yl)pyridin-2-yl)amino)-N,N-dimethyl-7H-pyrrolo[2,3-d]pyrimidine-6-carboxamide]
11 | > 10000 nM | CN(C)C(=O)c1cc2cnc(Nc3ccc(N4CCN(C(=O)/C=C/C(=O)c5ccc(F)cc5)CC4)cn3)nc2n1C1CCCC1 [Compound 151, (E)-7-cyclopentyl-2-((5-(4-(4-(4-fluorophenyl)-4-oxobut-2-enoyl)piperazin-1-yl)pyridin-2-yl)amino)-N,N-dimethyl-7H-pyrrolo[2,3-d]pyrimidine-6-carboxamide]
12 | > 10000 nM | CN(C)C(=O)c1cc2cnc(Nc3ccc(N4CCN(C(=O)/C=C/C(=O)c5ccccc5Cl)CC4)cn3)nc2n1C1CCCC1 [Compound 158, (E)-2-((5-(4-(4-(2-chlorophenyl)-4-oxobut-2-enoyl)piperazin-1-yl)pyridin-2-yl)amino)-7-cyclopentyl-N,N-dimethyl-7H-pyrrolo[2,3-d]pyrimidine-6-carboxamide]
13 | > 10000 nM | CN(C)C(=O)c1cc2cnc(Nc3ccc(N4CCN(C(=O)/C=C/C(=O)c5ccccc5Br)CC4)cn3)nc2n1C1CCCC1 [Compound 159, (E)-2-((5-(4-(4-(2-bromophenyl)-4-oxobut-2-enoyl)piperazin-1-yl)pyridin-2-yl)amino)-7-cyclopentyl-N,N-dimethyl-7H-pyrrolo[2,3-d]pyrimidine-6-carboxamide]
14 | > 10000 nM | COc1ccc(C(=O)/C=C(\C)C(=O)N2CCN(c3ccc(Nc4ncc5cc(C(=O)N(C)C)n(C6CCCC6)c5n4)nc3)CC2)cc1 [Compound 160, (E)-7-cyclopentyl-2-((5-(4-(4-(4-methoxyphenyl)-2-methyl-4-oxobut-2-enoyl)piperazin-1-yl)pyridin-2-yl)amino)-N,N-dimethyl-7H-pyrrolo[2,3-d]pyrimidine-6-carboxamide]
15 | > 10000 nM | CN(C)C(=O)c1cc2cnc(Nc3ccc(N4CCN(C(=O)/C=C/C(=O)c5cccc(C(F)(F)F)c5)CC4)cn3)nc2n1C1CCCC1 [Compound 165, (E)-7-cyclopentyl-N,N-dimethyl-2-((5-(4-(4-oxo-4-(3-(trifluoromethyl)phenyl)but-2-enoyl)piperazin-1-yl)pyridin-2-yl)amino)-7H-pyrrolo[2,3-d]pyrimidine-6-carboxamide]
16 | > 10000 nM | CN(C)C(=O)c1cc2cnc(Nc3ccc(N4CCN(C(=O)/C=C/C(=O)c5ccc6c(c5)OCCO6)CC4)cn3)nc2n1C1CCCC1 [Compound 255, (E)-7-cyclopentyl-2-((5-(4-(4-(2,3-dihydrobenzo[b][1,4]dioxin-6-yl)-4-oxobut-2-enoyl)piperazin-1-yl)pyridin-2-yl)amino)-N,N-dimethyl-7H-pyrrolo[2,3-d]pyrimidine-6-carboxamide]
17 | > 10000 nM | COc1ccc(C(=O)/C=C(\C#N)C(=O)N2CCN(c3ccc(Nc4ncc5cc(C(=O)N(C)C)n(C6CCCC6)c5n4)nc3)CC2)cc1 [Compound 256, (E)-2-((5-(4-(2-cyano-4-(4-methoxyphenyl)-4-oxobut-2-enoyl)piperazin-1-yl)pyridin-2-yl)amino)-7-cyclopentyl-N,N-dimethyl-7H-pyrrolo[2,3-d]pyrimidine-6-carboxamide]
18 | > 10000 nM | CN(C)C(=O)c1cc2cnc(Nc3ccc(N4CCN(C(=O)/C=C/C(=O)c5ccc6c(c5)NC(=O)CO6)CC4)cn3)nc2n1C1CCCC1 [Compound 257, (E)-7-cyclopentyl-N,N-dimethyl-2-((5-(4-(4-oxo-4-(3-oxo-3,4-dihydro-2H-benzo[b][1,4]oxazin-6-yl)but-2-enoyl)piperazin-1-yl)pyridin-2-yl)amino)-7H-pyrrolo[2,3-d]pyrimidine-6-carboxamide]
